This is an account of results in patent US7049094B2, “Methods for identifying modulators of N-type ion channel inactivation” (Wyeth, priority 1999, dated 2006).

One experiment deals with T1, hKv1.4 channels (Homo sapiens, UniProt P22459).
T1 construct: expressed in transfected cells; host or cells: CHO cells
Briefly: Elimination of N-type inactivation of hKv1.4 channels (CHO cells). The class given is cell-based. Conditions: glutathione keeps channels in reduced (inactivating) state. How it is done:
Compounds active in the yeast assay were examined for their ability to disrupt N-type Kv channel inactivation in CHO cells transfected with hKv1.1 alone, hKv1.1 plus hKvβ1, or hKv1.4, and in Xenopus oocytes injected with the corresponding mRNA's. […] This “disinactivating” effect was potent and dose dependent, with an IC50 ranging from 0.3 μM to […] in CHO cells and a 3–5 fold higher IC50 of 0.9 μM in oocytes. […] In addition to the disinactivating effect of these compounds, a parallel dose-dependent increase in peak current occurred simultaneously with the loss of inactivation. This increase in peak current is probably at least partially due to the removal of inactivation, which uncovers the “true” peak current of the channels in the cell, although other mechanisms such as a stabilization of the open state of the channel may also be occurring. […] At 100 μM, however, Compound “A” blocked approximately 37% of the hKv1.1 current in CHO cells, thus high concentrations of some of these compounds are able to block Kv1.1 channels.
The mechanism of action of these Kv channel modulators (referred to herein as “disinactivators”) was further explored first by altering the voltage protocol so that single voltage steps to 50 mV were applied once every 20 sec (FIG. 8). […]

A further experiment deals with PTZ-induced seizures. Briefly: Protection against pentylenetetrazol-induced seizures. The format is in vivo. Conditions: Mus musculus; mice, I.P., 30 min before PTZ 85 mg/kg s.c.; read-out: estimated ED50, protection against PTZ-induced seizures. As for the experimental part: FIG. 8. Protection against pentelenetetrazol-induced seizures in the mouse. Adult male mice were treated with valproic acid (FIG. 8a), Compound A (FIG. 8b), and Compound B (FIG. 8c) at doses from 30–178 mg/kg i.p. (n=8/dose). Thirty minutes later, these animals were challenged with pentelenetetrazol (85 mg/kg, SC) and observed for onset of seizures during a 30 minute test period. The number of animals protected from seizures was plotted versus dose of test compound and ED50s were estimated from this dose-response data.
The activities of Kv channel modulators were examined in several in vitro and in vivo seizure models. Field potential recordings were performed in the CA1 region of rat hippocampal slices treated with 10 μM bicuculline to induce multiple population spikes (Albus, H. and R. Williamson, Epilepsia (1998) 39(2):124–139). […] To test this hypothesis directly, the disinactivators were examined for their ability to protect mice from pentylenetetrazol-induced seizures. Mice were pretreated with Compound “D” or Compound “E” (30–300 mg/kg i.p.), valproic acid (156 mg/kg i.p.) or saline. Thirty minutes later, pentylenetetrazol (PTZ; 85 mg/kg, s.c.) was administered and the mice were monitored for development of spontaneous, recurrent seizures (a seizure was defined as loss of righting reflex; see Frey, H.-H. and I. Bartels, Epilepsy Res. (1997) 27:151–164). […]

T1 sequence (P22459 whole entry): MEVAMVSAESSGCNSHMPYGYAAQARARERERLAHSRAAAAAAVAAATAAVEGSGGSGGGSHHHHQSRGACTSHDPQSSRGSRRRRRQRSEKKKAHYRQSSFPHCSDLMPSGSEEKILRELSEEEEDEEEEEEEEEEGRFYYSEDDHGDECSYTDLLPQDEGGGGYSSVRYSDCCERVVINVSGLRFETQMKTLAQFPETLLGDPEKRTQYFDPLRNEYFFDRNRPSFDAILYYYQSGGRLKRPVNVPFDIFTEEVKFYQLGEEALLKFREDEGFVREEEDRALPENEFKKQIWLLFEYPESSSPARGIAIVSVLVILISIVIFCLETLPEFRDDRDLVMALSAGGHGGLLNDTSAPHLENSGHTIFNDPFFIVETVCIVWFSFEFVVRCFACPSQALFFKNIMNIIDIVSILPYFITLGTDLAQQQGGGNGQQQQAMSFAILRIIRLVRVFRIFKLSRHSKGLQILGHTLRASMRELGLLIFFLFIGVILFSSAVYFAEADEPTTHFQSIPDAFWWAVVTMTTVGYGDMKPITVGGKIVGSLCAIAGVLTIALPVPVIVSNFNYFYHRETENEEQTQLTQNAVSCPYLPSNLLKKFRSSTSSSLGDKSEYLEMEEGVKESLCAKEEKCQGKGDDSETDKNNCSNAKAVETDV

Regarding `OO` [Compound H2O2, H2O2], the “disinactivation of hKv1.4 with glutathione applied” value on hKv1.4 channels is given as “Glutathione was able to block the disinactivation”.

For `CCCC(CCC)C(=O)O` [valproic acid], in the experiment with PTZ-induced seizures, the ED50 (commonly the dose at which the effect has come halfway, by size or by number of responders) was 141 mg/kg.
